Source: paper PMC7488365 (Acta Pharmaceutica Sinica. B, 2019)
Where two headings read alike, the source gives them in different places.

Columns and labels:
USP28 [1] = target: T1, USP28 (Homo sapiens, UniProt Q96RU2); assay: biochemical; assay type: biochemical; details: for inhibition at 12.5 µM: read-out: Inhibition rate at 12.5 μmol/L (%); for Inhibition rate at 12.5 μmol/L (%): 12.5 μmol/L compound, Ub-AMC substrate
T1 sequence (Q96RU2 1-700): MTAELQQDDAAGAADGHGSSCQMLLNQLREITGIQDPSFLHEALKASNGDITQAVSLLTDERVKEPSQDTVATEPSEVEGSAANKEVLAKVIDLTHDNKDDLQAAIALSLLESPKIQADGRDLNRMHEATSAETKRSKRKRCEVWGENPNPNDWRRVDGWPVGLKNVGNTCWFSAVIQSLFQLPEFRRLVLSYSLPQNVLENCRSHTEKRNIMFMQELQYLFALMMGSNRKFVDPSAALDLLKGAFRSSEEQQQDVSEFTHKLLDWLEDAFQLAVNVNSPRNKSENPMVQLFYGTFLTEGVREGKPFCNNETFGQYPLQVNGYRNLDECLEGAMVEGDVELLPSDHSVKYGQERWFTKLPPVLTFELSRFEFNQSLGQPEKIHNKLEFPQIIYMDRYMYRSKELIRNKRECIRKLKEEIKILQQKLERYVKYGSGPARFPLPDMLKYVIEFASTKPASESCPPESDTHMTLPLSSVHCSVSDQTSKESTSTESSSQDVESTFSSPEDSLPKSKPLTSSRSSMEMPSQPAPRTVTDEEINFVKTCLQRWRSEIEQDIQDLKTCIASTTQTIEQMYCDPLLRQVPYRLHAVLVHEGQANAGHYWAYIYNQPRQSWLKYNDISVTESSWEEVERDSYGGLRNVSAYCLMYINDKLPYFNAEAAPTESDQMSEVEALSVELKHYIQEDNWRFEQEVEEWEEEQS

MGC-803 cells = assay: cells; details: Homo sapiens, MGC-803, 72 h, read-out: IC50 cell viability MGC-803
MKN45 cells = assay: cells; details: Homo sapiens, MKN-45, 72 h, read-out: IC50 cell viability MKN45
GES-1 cells = assay: cells; details: Homo sapiens, GES1, 72 h, read-out: IC50 cell viability GES-1
HGC-27 cells = assay: MTT cell viability assay, HGC-27; details: Homo sapiens, HGC-27, 72 h, read-out: IC50 cell viability HGC-27
USP28 [2] = target: T1, USP28; assay: Bio-layer interferometry; assay type: binding
[3] = tested on: USP28, LSD1 and total c-Myc in HGC-27 cells; assay: Western blotting of USP28, LSD1 and total c-Myc; assay type: cell-based, human; details: HGC-27, 3 h, even at 40 μmol/L
USP28 [4] = target: T1, USP28; details: read-out: EC50 USP28 inhibition; cited from earlier work

SMILES	IC50 (USP28 [1]) [µM]	inhibition at 12.5 µM (USP28 [1]) [%]	Inhibition rate at 12.5 μmol/L (%) (USP28 [1])	other results
NCCNc1ncnc2c1nnn2Cc1ccc(Cl)cc1 [Compound 21, N^1-(3-(4-Chlorobenzyl)-3H-[1,2,3]triazolo[4,5-d]pyrimidin-7-yl)ethane-1,2-diamine]	12.3 ± 0.27	62.2		
CCCSc1nc(NCCN)c2nnn(CCCc3ccccc3)c2n1 [Compound 14, N^1-(3-(3-Phenylpropyl)-5-(propylthio)-3H-[1,2,3]triazolo[4,5-d]pyrimidin-7-yl)ethane-1,2-diamine]	27.6 ± 2.2			
CCCSc1nc(NCc2ccco2)c2nnn(Cc3ccccc3)c2n1 [Compound 5, 3-Benzyl-N-(furan-2-ylmethyl)-5-(propylthio)-3H-[1,2,3]triazolo[4,5-d]pyrimidin-7-amine]		45.6		IC50 (USP28 [1]; read-out: IC50 against USP28, Ub-AMC 100 nmol/L, USP28 62.5 nmol/L): 14.2 ± 0.19 µM
CCCSc1nc(NCCNC(C)=O)c2nnn(Cc3ccc(Cl)cc3)c2n1 [Compound 20, N-(2-((3-(4-Chlorobenzyl)-5-(propylthio)-3H-[1,2,3]triazolo[4,5-d]pyrimidin-7-yl)amino)ethyl)acetamide]	> 100		Inactive	
CCCSc1nc(NCCN)c2nnn(CCO)c2n1 [Compound 12, 2-(7-((2-Aminoethyl)amino)-5-(propylthio)-3H-[1,2,3]triazolo[4,5-d]pyrimidin-3-yl)ethan-1-ol]	> 100		Inactive	IC50 (MGC-803 cells): > 50 µM; IC50 (MKN45 cells): > 50 µM; IC50 (GES-1 cells): > 100 µM; IC50 (HGC-27 cells): > 100 µM; Binding to USP28 (in words) (USP28 [2]; BLI): failed to bind; protein levels of USP28, LSD1 and total c-Myc [3]: remained unchanged
CCCSc1nc(NCCN(C)C)c2nnn(Cc3ccccc3)c2n1 [Compound 10, N^1-(3-Benzyl-5-(propylthio)-3H-[1,2,3]triazolo[4,5-d]pyrimidin-7-yl)-N^2,N^2-dimethylethane-1,2-diamine]	> 100		Inactive	
Cc1nc(NCCN)c2nnn(Cc3ccc(Cl)cc3)c2n1 [Compound 23, N^1-(3-(4-Chlorobenzyl)-5-methyl-3H-[1,2,3]triazolo[4,5-d]pyrimidin-7-yl)ethane-1,2-diamine]	34.8 ± 1.27	35		
CCCSc1nc(N2CCNCC2)c2nnn(Cc3ccccc3)c2n1 [Compound 7, 3-Benzyl-7-(piperazin-1-yl)-5-(propylthio)-3H-[1,2,3]triazolo[4,5-d]pyrimidine]	10.2 ± 1.3	50		
N#CSc1cc(SC#N)c(N)nc1N [PR-619]				EC50 (USP28 [4]): ~8 µM
CCCSc1nc(NCCCN2CCOCC2)c2nnn(Cc3ccccc3)c2n1 [Compound 4, 3-Benzyl-N-(3-morpholinopropyl)-5-(propylthio)-3H-[1,2,3]triazolo[4,5-d]pyrimidin-7-amine]	> 100		Inactive	
CCCSc1nc(NCCN)c2nnn(Cc3ccccc3)c2n1 [Compound 8, N^1-(3-benzyl-5-(propylthio)-3H-[1,2,3]triazolo[4,5-d]pyrimidin-7-yl)ethane-1,2-diamine]	4.34 ± 0.3	80		Kd (USP28 [2]): 0.09 µM
CCCSc1nc(NCCN)c2nnn(CCNC(=O)OC(C)(C)C)c2n1 [Compound 13, Tert-butyl(2-(7-((2-aminoethyl)amino)-5-(propylthio)-3H-[1,2,3]triazolo[4,5-d]pyrimidin-3-yl)ethyl)carbamate]	> 100		Inactive	
CCCSc1nc(NCCN)c2nnn(Cc3ccc(O)cc3)c2n1 [Compound 16, 4-((7-((2-Aminoethyl)amino)-5-(propylthio)-3H-[1,2,3]triazolo[4,5-d]pyrimidin-3-yl)methyl)phenol]	28.7 ± 1.36	36.2		
CCCSc1nc(NCCN)c2nnn(CCc3c[nH]c4ccccc34)c2n1 [Compound 15, N^1-(3-(2-(1H-Indol-3-yl)ethyl)-5-(propylthio)-3H-[1,2,3]triazolo[4,5-d]pyrimidin-7-yl)ethane-1,2-diamine]	24.8 ± 0.58	34		
CCCSc1nc(NC2CC2)c2nnn(Cc3ccccc3)c2n1 [Compound 3, 3-Benzyl-N-cyclopropyl-5-(propylthio)-3H-[1,2,3]triazolo[4,5-d]pyrimidin-7-amine]	> 100		Inactive	
CCCSc1nc(NCCN)c2nnn(Cc3ccccc3Cl)c2n1 [Compound 17, N^1-(3-(2-Chlorobenzyl)-5-(propylthio)-3H-[1,2,3]triazolo[4,5-d]pyrimidin-7-yl)ethane-1,2-diamine]	13.21 ± 0.03	56		
CCCSc1nc(NCCNC(=O)OC(C)(C)C)c2nnn(Cc3ccccc3)c2n1 [Compound 9, Tert-butyl(2-((3-benzyl-5-(propylthio)-3H-[1,2,3]triazolo[4,5-d]pyrimidin-7-yl)amino)ethyl)carbamate]	> 100		Inactive	
CCCSc1nc(NCCNC)c2nnn(Cc3ccccc3)c2n1 [Compound 11, N^1-(3-Benzyl-5-(propylthio)-3H-[1,2,3]triazolo[4,5-d]pyrimidin-7-yl)-N^2-methylethane-1,2-diamine]	8.55 ± 0.87	61.7		
NCCNc1nc(SCc2ccccc2)nc2c1nnn2Cc1ccc(Cl)cc1 [Compound 22, N^1-(5-(Benzylthio)-3-(4-chlorobenzyl)-3H-[1,2,3]triazolo[4,5-d]pyrimidin-7-yl)ethane-1,2-diamine]	23.3 ± 0.59	45		
C#CCSc1nc(NCCN)c2nnn(Cc3ccc(Cl)cc3)c2n1 [Compound 24, N^1-(3-(4-Chlorobenzyl)-5-(prop-2-yn-1-ylthio)-3H-[1,2,3]triazolo[4,5-d]pyrimidin-7-yl)ethane-1,2-diamine]	14.5 ± 0.19	59.9		
CCCSc1nc(NCc2cccnc2)c2nnn(Cc3ccccc3)c2n1 [Compound 6, 3-Benzyl-5-(propylthio)-N-(pyridin-3-ylmethyl)-3H-[1,2,3]triazolo[4,5-d]pyrimidin-7-amine]	20.5 ± 1.45	23.1		
CCCSc1nc(NCCN)c2nnn(Cc3ccc(Br)cc3)c2n1 [Compound 18, N^1-(3-(4-Bromobenzyl)-5-(propylthio)-3H-[1,2,3]triazolo[4,5-d]pyrimidin-7-yl)ethane-1,2-diamine]	6 ± 0.05	76.7		
